Measured values taken from patent publication US20080182805A1, “O-GlcNAcase-specific inhibitor and substrate engineered by the extension of the N-Acetyl moiety” (The Gov. of the U.S.A., as represented by the Secretary, …, priority 2007, published 2008).

Tests used:
[1] = target: T1, HEX A (Homo sapiens, UniProt P06865+P07686); test: Inhibition of HEX A measured with nonselective fluorogenic substrate (3); format: biochemical; details: for inhibition of HEX A: fluorescence λex=485 nm, λem=535 nm
T1 sequence (P06865 89-529): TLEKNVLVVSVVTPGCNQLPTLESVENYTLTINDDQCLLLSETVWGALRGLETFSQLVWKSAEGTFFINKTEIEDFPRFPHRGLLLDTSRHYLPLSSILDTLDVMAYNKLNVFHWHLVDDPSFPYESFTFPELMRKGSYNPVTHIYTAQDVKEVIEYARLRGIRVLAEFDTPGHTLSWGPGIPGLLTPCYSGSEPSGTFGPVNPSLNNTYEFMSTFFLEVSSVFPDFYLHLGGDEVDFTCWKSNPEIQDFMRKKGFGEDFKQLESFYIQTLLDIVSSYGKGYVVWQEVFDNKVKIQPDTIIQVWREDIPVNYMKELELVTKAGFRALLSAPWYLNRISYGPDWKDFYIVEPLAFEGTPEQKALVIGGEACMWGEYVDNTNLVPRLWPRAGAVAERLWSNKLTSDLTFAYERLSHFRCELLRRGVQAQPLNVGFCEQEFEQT
T1 sequence (P07686 122-556): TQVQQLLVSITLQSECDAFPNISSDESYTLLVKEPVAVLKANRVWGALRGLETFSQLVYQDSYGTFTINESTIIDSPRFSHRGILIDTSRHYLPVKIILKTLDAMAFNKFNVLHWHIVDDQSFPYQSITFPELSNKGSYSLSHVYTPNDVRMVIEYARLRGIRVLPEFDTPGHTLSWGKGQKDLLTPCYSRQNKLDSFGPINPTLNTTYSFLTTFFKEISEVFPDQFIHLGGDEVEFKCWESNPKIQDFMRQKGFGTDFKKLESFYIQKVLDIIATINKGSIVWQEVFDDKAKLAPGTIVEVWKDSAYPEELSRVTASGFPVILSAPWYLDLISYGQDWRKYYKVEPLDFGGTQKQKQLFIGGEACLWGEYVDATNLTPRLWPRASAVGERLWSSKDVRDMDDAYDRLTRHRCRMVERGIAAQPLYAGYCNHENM
Description: (§1) The analysis of (2) was accomplished using previously reported methods.^9,11 For the determination of the inhibitory selectivity of both PUGNAc (1) and 2 at O-GlcNAcase, HEX A, and HEX B, the nonselective fluorogenic substrate (3) was utilized. The level of inhibition was determined based upon the quantification of fluorescence measured in the absence and presence of both PUGNAc (1) and (2) (intensity of fluorescence was measured at λex=485 nm at λem=535 nm). The results are compiled in FIG. 2. The analysis of (4) as a highly specific substrate for O-GlcNAcase activity was performed by the parallel treatment of O-GlcNAcase and HEX A with varying concentrations of (4) over a 45 min incubation period and the quantification of the resulting fluorescence. The results are compiled in FIG. 3.

[2] = system: fat cells; details: cited from earlier work
[3] = target: T2, O-GlcNAcase (Homo sapiens, UniProt O60502); test: Inhibition of O-GlcNAcase measured with nonselective fluorogenic substrate (3); format: biochemical; details: fluorescence λex=485 nm, λem=535 nm
T2 construct: made in house
T2 sequence (O60502 1-916): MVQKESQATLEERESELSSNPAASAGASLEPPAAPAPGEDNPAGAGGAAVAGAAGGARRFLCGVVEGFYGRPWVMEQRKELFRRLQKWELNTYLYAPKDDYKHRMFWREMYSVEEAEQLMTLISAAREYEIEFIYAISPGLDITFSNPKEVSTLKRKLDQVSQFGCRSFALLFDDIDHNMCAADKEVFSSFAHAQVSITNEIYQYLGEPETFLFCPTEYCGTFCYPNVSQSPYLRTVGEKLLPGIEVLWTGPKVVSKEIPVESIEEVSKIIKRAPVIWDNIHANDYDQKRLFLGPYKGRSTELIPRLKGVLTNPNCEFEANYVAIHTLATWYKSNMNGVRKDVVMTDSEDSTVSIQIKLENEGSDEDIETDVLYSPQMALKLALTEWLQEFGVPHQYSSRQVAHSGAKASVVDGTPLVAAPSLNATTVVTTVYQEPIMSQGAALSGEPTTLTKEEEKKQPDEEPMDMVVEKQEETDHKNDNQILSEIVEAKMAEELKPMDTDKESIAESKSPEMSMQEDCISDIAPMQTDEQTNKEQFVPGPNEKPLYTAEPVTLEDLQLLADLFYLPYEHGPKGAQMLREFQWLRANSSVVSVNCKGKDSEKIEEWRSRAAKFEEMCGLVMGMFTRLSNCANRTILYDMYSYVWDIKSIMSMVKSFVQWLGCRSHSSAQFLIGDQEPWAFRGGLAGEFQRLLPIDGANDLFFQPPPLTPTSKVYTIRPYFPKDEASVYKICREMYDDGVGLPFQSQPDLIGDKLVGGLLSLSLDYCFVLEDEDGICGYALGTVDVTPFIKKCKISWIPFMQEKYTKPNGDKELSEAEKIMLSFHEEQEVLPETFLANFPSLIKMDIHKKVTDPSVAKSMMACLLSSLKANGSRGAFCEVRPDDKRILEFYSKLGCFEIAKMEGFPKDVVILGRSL
Description: as §1

[4] = target: T3, HEX B (Homo sapiens, UniProt P07686); test: Inhibition of HEX B measured with nonselective fluorogenic substrate (3); format: biochemical; details: fluorescence λex=485 nm, λem=535 nm
T3 sequence (P07686 122-556): T1 sequence (P07686 122-556)
Description: as §1

Row | SMILES | inhibition of HEX A [1] | effect on insulin resistance in fat cells [2] | inhibition of O-GlcNAcase [3] | inhibition of HEX B [4] | concentration up to which selectivity (no inhibition) was verified against HEX A [1] [µM]
1 | CC(=O)N[C@H]1/C(=N/OC(=O)Nc2ccccc2)O[C@H](CO)[C@@H](O)[C@@H]1O [PUGNAc, O-(2-acet-amido-2-deoxy-D-glucopyranosylidene)amino-N-phenylcarbamate] | potently inhibit | induces insulin resistance | potently inhibit | potently inhibit | –
2 | CCCCC(=O)N[C@H]1/C(=N/OC(=O)Nc2ccccc2)O[C@H](CO)[C@@H](O)[C@@H]1O [compound 2] | total loss of inhibitory activity | – | slightly decreases the inhibitory potency | total loss of inhibitory activity | > 30
